Legend:
rainbow trout RBCs [1] = assay: Antiviral gene expression in RBCs by RT-qPCR; type: cell-based, rainbow trout (Oncorhynchus mykiss); settings: 50 µM peptide, 6 h post-treatment at 14 °C, normalized to ef1α, relative to untreated RBCs
Method: Figure 3 Antiviral immunomodulation of the peptides in rainbow trout RBCs. Antiviral gene (ifit5, mx1-3, nkef, and vig1) expression quantified by RT-qPCR in RBCs at 6 h post-treatment (hpt) with 50 µM of each peptide. Gene expression was normalized against ef1α and relativized to control cells (RBCs untreated) (red line). Data represent the mean ± standard deviation (SD), n = 4. Mann–Whitney test was performed (* p < 0.05).
To evaluate the possible antiviral immunomodulatory effects of the peptides, ficoll-purified RBCs (10^6 cells/well) were incubated with 50 µM of 4341, 4342, 4343 Rhd-labeled peptides for 6 h at 14 °C. After that, RBCs were washed, and samples were stored in buffer for RNA extraction and RT-qPCR analysis (Figure 5).
The E.Z.N.A.® Total RNA Kit (Omega Bio-Tek Inc., Norcross, GA, USA) was used for RNA isolation according to the manufacturer’s instructions. Subsequent DNAse treatment was done using TURBO™ DNase (Ambion, Thermo Fisher Scientific, Waltham, MA USA) to eliminate possible residual genomic DNA. RNA was quantified with a NanoDrop Spectrophotometer (Nanodrop Technologies, Wilmington, DE, USA). Then, cDNA synthesis from RNA was performed using M-MLV reverse transcriptase (Invitrogen, Thermo Fisher Scientific) as previously described.
To evaluate the gene expression of RBCs treated with 50 µM of the three Rhd-labeled peptides, RT-qPCR was carried out using the QUANTSTUDIO 3 System (Applied Biosystems, Thermo Fisher Scientific Inc.). Gene expression was analyzed by the 2^–ΔΔCt method. The ef1α gene was used as endogenous control.

[2] = cited from earlier work
From the text: In addition, our selected peptides were mainly found inside RBCs, instead of at the surface of the RBCs, as observed by confocal microscopy. […] In this contex ...

rainbow trout RBCs [3] = assay: In vivo binding of peptides to RBCs after i.v. injection, flow cytometry (iMFI); set-up: species or system rainbow trout (Oncorhynchus mykiss); settings: i.v. injection of 100 µM peptide in 50 µL, peripheral blood at 3 hpi, mean ± SD n = 3, ranking of peptides
Method: Figure 4 Peptide binding to rainbow trout RBCs in vivo, by means of flow cytometry. (a) Integrated median fluorescence intensity (iMFI) (% positive cells × MFI) of RBCs from blood of rainbow trout injected intravenously with the three selected peptides, 3 hpi with 100 µM of each peptide, analyzed by flow cytometry. Data represent the mean ± standard deviation (SD), n = 3. Kruskal–Wallis test with Dunn’s multiple comparison test was performed (p < 0.05). C means control RBCs. (b) Representative images of RBCs from blood of rainbow trout injected intravenously with the three selected peptides, 3 hpi with 100 µM of each peptide. The images were taken with the IN Cell Analyzer 6000 Cell Imaging system at 40× magnification. Peptides are labeled with Rhd (red). […]
Juvenile rainbow trout (7–10 g) were anesthetized with tricaine methanesulfonate, (Sigma-Aldrich, Madrid, Spain) (40 mg/L) and injected intravenously (i.v) with 100 µM of 4341, 4342, 4343 Rhd-labeled peptides in 50 µL of RMPI 2% FBS using insulin syringes. […] Then, blood samples were evaluated by means of flow cytometry and fluorescent microscopy as described below (Figure 6).
RBCs treated in vitro with the Rhd-labeled peptides and blood samples from individuals of rainbow trout injected with the three Rhd-labeled peptides were analyzed by flow cytometry using a FACS Canto II flow cytometer (BD Biosciences, Madrid, Spain). […]

rainbow trout RBCs [4] = assay: Confocal microscopy of peptide-RBC binding / presence inside the cell; type: cell-based, rainbow trout (Oncorhynchus mykiss); settings: 90 min incubation with Rhd-labeled peptides, Hoechst and CellMask Green staining
Method: Figure 2 Volume 3D reconstruction of the visualization of the peptides binding to rainbow trout RBCs. Rhd-labeled peptides are represented in red, nuclei were stained with Hoescht and are represented in blue, and cell membrane was stained using CellMask Green and is represented in beige. The images were taken at 63× magnification. Confocal images were processed using the ZEN 3.2 (Blue edition). Volume rendering was performed with IMARIS v9.3. Upper images represent plan view and lower images represent perspective view.
Confocal microscopy was performed to evaluate peptide-RBCs binding in vitro. After 90 min of incubation with Rhd-labeled peptides, RBCs were washed, and nuclei were stained with Hoechst (1 μg/mL) (Sigma-Aldrich) and membrane was stained with CellMask Green (5 μg/mL) (Thermo Fischer Scientific). Images were taken with a Zeiss LSM900 with Airyscan 2 and analyzed with ZEN 3.2 (Blue edition) software (Zeiss, Oberkochen, Germany). Volume rendering was performed using IMARIS Software v9.3 (Bitplane, Zurich, Switzerland).

rainbow trout RBCs [5] = assay: In vitro binding of Rhd-labeled peptides to RBCs, flow cytometry (iMFI); type: cell-based, rainbow trout (Oncorhynchus mykiss); settings: 100 µM Rhd-labeled peptide, 90 min at 14 °C, 10^5 cells/well, mean ± SD n = 3, ranking of peptides
Method: In order to evaluate the binding of the peptides for RBCs, we carried out a dose-response assay using a concentration range from 25 to 100 µM. The binding of the Rhodamine (Rhd)-labeled peptides was evaluated by means of flow cytometry and calculated as the integrated median fluorescence intensity (iMFI), which is computed by multiplying the relative frequency (% positive) of cells with the median fluorescence intensity (MFI) of that population. […] Besides, hemagglutination was not observed at the concentrations of peptides used (Supplementary Figure S1). Cell toxicity was not observed neither in vitro nor in vivo at the maximum concentration of peptides used (Supplementary Figure S2).
Figure 1 Peptide binding to rainbow trout RBCs in vitro, evaluated by means of flow cytometry. (a) Integrated median fluorescence intensity (iMFI) (% positive cells × MFI) of rainbow trout RBCs treated with different peptide concentrations, 90 min after incubation, analyzed by flow cytometry. Data represent the mean ± standard deviation (SD), n = 3. […]
Ficoll-purified RBCs (10^5 cells/well) were treated with 25, 50, and 100 µM of 4341, 4342, 4343 Rhd-labeled peptides, and incubated for 90 min at 14 °C. Then, RBCs were washed with 200 µL of RPMI 2% FBS and analyzed by flow cytometry, fluorescent microscopy, and confocal microscopy as described below (Figure 5). […]

human RBCs = settings: cited from earlier work
From the text: (§1) Among the identified peptides in the literature, we selected three peptides based on their reported affinity to bind nucleated RBCs or mammalian RBCs. […] This peptide will be named in this article as 4341. Another selected peptide is a small peptide with lectin-like behavior, called odorranalectin (hereafter referred ...

rabbit RBCs = settings: cited from earlier work
From the text: as §1

Rhd-YASPKCFRYPNGVLACT [compound 4342, odorranalectin, Rhd-labeled small peptide with lectin-like behavior, called odorranalectin]
mx1-3 gene expression (rainbow trout RBCs [1]; n = 4): slight and not statistically significant upregulation
ifit5 gene expression (rainbow trout RBCs [1]; n = 4, Mann–Whitney p < 0.05): statistically significantly upregulated
nkef gene expression (rainbow trout RBCs [1]; n = 4, not statistically significant): upregulated
Stability in circulation [2]: high stability in circulation
Binding to RBCs in vivo (iMFI = % positive cells × MFI) (rainbow trout RBCs [3]): highest iMFI
Presence of peptide inside the cell (rainbow trout RBCs [4]): higher
Binding to RBCs (iMFI = % positive cells × MFI) (rainbow trout RBCs [5]): highest binding
Binding to human RBCs (human RBCs): bind
Binding to rabbit RBCs (rabbit RBCs): bind
